Entries after “also recorded” stand apart in the source; their conditions may differ.
Legend:
[1] = test system: ENaC, CFTR or CaCC activity in human bronchial epithelial (HBE) cells; test: Short-circuit current in well-differentiated HBE cells; format: cell-based; conditions: 10 µM, pre-treatment 20 min; amiloride, forskolin, CFTRinh-172, ATP additions
Excerpt: To investigate Compound A1 selectivity, transport assays were done on a panel of SLC26-family homologs, and other relevant epithelial ion transporters and channels. […] In separate studies, to investigate possible action of Compound A1 on multiple ion transporters and channels in a human epithelium, human bronchial epithelial (HBE) cells were studied by short-circuit current, with successive additions of amiloride (to block the epithelial sodium channel ENaC), forskolin, CFTRinh-172 (to block CFTR), and ATP (to activate the Ca^2+-activated chloride channel, CaCC) (FIG. 5C).
HEK293 cells transfected with pIRES-YFP-slc26a9 were plated in 96-well black-walled, clear-bottom tissue culture plates (Corning Life Sciences, Tewksbury, MA) after coating with FNC Coating Mix (AthenaES, Baltimore, MD). […] Assays of slc26a9-mediated anion exchange were done by initially recording YFP fluorescence prior to addition of 100 µL of NaI-substituted PBS to test wells, with the initial rate of Cl^-/I^- exchange deduced from fluorescence intensity by single exponential regression. […] To assay SLC26A3 function, HEK293 cells transduced with lentiviral particles generated from the pLVX-IRES-mCherry-SLC26A3 transfer vector were transfected to express YFP for Cl^-/I^- exchange assays as described above; red fluorescence images were acquired to confirm SLC26A3 expression in cells. […]

murine slc26a3 = target: T1, murine slc26a3 (Mus musculus, UniProt Q9WVC8); test: slc26a3-mediated Cl-/I- exchange, YFP fluorescence quenching in FRT-YFP-slc26a3 cells; format: cell-based
T1 construct: host or cells: Fischer rat thyroid (FRT) cells expressing YFP, clonal line FRT-YFP-slc26a3
T1 sequence (Q9WVC8 1-757): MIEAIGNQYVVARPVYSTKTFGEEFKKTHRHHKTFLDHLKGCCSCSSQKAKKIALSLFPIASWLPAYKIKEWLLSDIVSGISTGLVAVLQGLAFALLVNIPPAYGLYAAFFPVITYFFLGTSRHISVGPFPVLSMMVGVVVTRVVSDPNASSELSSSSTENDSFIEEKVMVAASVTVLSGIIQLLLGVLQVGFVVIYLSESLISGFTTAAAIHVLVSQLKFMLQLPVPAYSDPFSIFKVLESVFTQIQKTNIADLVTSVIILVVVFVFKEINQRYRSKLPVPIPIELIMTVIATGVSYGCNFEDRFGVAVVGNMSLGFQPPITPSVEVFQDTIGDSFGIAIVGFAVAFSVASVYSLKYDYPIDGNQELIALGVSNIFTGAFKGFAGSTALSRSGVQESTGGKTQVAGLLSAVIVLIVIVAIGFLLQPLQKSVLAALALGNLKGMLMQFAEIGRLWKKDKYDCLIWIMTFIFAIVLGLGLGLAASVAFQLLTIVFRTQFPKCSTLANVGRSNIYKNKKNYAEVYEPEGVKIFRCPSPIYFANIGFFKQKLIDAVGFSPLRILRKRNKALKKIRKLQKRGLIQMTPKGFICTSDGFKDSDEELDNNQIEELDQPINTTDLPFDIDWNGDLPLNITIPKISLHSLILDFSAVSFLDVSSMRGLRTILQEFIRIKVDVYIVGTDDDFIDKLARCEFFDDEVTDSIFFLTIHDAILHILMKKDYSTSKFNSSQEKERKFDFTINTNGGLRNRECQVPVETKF

[2] = test system: mouse mid-jejunal closed loops; test: Closed mid-jejunal loop fluid absorption in mice; format: in vivo; conditions: 10 µM intraluminal, 30 min
Protocol: Female CD1 mice (age 8-10 weeks) were given free access to Pedialyte (per liter: Na^+ 45 mEq, Cl^- 35 mEq, K^+ 20 mEq, dextrose 25 g; Abbott, Abbot Park, IL) but not solid food for 48 h before experiments. Mice were treated with 500 µL mineral oil once a day rectally (last dose 12 h before surgeries) during this period to evacuate the colon. Closed intestinal loops were isolated as described. Mice were anesthetized with isoflurane and body temperature was maintained during surgery at 36-38° C. using a heating pad. A small abdominal incision was made to expose the distal colon, and one closed distal colonic loop (length 1.5-2 cm) was isolated with sutures in each mouse. Loops were injected with 100 µL phosphate-buffered saline (PBS, pH: 7.4, in mM: 137 NaCl, 2.7 KCl, 8 Na2HPO4, 1.8 KH2PO4, 1 CaCl2, 0.5 MgCl2) without and with 10 µM Compound A1 and/or 10 µM tenapanor (MedChemExpress, Monmouth Junction, NJ). The abdominal incision was closed with sutures, and mice were allowed to recover from anesthesia. Colonic loops were removed at 0 and 60 min (in separate mice) and loop length and weight were measured to quantify fluid absorption. Luminal fluid was emptied with a syringe and pH was measured immediately using AB15 pH Meter (Thermo Fisher Scientific, South San Francisco, CA). In separate studies, mid-jejunal loops (length 2-3 cm, 3-4 loops per mouse) were isolated as described above, injected with 100 µL PBS without or with 10 µM Compound A1 and/or 10 µM tenapanor, and excised at 0 and 30 min to measure loop length and weight.

Cc1c(CC(=O)O)c(=O)oc2c(C)c(OCc3cccc(Br)c3)ccc12 [Compound A1]
effect on short-circuit current responses [1]: did not alter short-circuit current responses; also recorded: differences not significant
t½ for inhibition (murine slc26a3; 1 µM, incubation for different times prior to Cl-/I- exchange): ~ 30 s
IC50 (murine slc26a3; summary over three anion exchange modes, read-out: IC50 for slc26a3-mediated Cl- exchange with HCO3-, I- and SCN-): ~200 nM
loop weight/length ratio (fluid absorption), mid-jejunal loops [2]: did not produce significant changes; also recorded: not in jejunal loops
luminal fluid pH, mid-jejunal loops [2]: did not alter acidification
